Source: patent publication US9957263B2, “Bromodomain inhibitors” (AbbVie Inc., priority 2013, dated 2018)

Experiments:
[1] = tested on: LPS induced IL-6 (Interleukin-6) production; test: LPS (lipopolysaccharide) induced IL-6 production mouse assay; assay type: in vivo; details: CD-1 female mice, oral administration one hour before LPS 2.5 mg/kg intraperitoneal, serum 2 hours after LPS; p value less than 0.05
Method: Example 2 was assayed for its ability to inhibit LPS (lipopolysaccharide) induced IL-6 (Interleukin-6) production in mice. CD-1 female mice (Charles River Laboratories, 5 per group) received an intraperitoneal challenge of lipopolysaccharide (2.5 mg/kg, L2630 E. coli 0111:B4) one hour after oral administration of compound or compound vehicle. Mice were euthanized 2 hours after lipopolysaccharide injection, blood was removed by cardiac puncture, and then the serum harvested from the blood samples was frozen at −80 OC. On the day of the assay the serum samples were brought to room temperature and then diluted 1:20 in phosphate-buffered saline containing 2% bovine serum albumin. Interleukin-6 measurements were performed using a cytokine assay from Meso Scale Discovery (Gaithersburg, Md.) for mouse serum analysis according to the manufacturer's protocol and read on a SECTOR Imager 6000 (Meso Scale Discovery, Gaithersburg, Md.) instrument. Statistical analysis was performed using Prism software (version 5.0) incorporating Dunnett's one way ANOVA. The IL-6 mean and standard deviation of the group of vehicle treated animals were compared with the IL-6 mean and standard deviation of the group treated with drug. A p value <0.05 means that there is less than a 5% probability that the mean values in the two groups are equal.

BRD4 (BDI_K57-E168) = BRD4 (BDI_K57-E168) (Homo sapiens (Human), UniProt O60885); test: TR-FRET bromodomain binding assay, BRD4 first bromodomain; details: His-tagged BD1, Alexa647-labeled probe 100 nM
Outline: (§1)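 His-tagged bromodomain (8 nM) was incubated 1 h at room temperature with Eu-anti-His antibody (1 nM), Alexa647-labeled BET-inhibitor probe (100 nM for BDI, 30 nM for BDII) and compound (50 μM-0.85 nM, 2% DMSO) in pH 6.0 phosphate buffer. TR-FRET ratio read; IC50 from 4-parameter fit converted to Ki using probe Kd.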

BRD4 (BDII_E352-M457) = BRD4 (BDII_E352-M457) (Homo sapiens (Human), UniProt O60885); test: TR-FRET bromodomain binding assay, BRD4 second bromodomain; details: His-tagged BD2, Alexa647-labeled probe 30 nM
Outline: as §1

[2] = tested on: breast cancer cell line MX-1; test: MX-1 cell line proliferation assay, Method B; assay type: cell-based; details: Homo sapiens, MX1; MX-1 cells, 384-well, 72 hours, Cell Titer Glo; read-out: Cellular proliferation: EC50 Method B
Method: (§2) The impact of compounds of the Examples on cancer cell proliferation was determined using the breast cancer cell line MX-1 (ATCC) in a 3-day proliferation assay and the data are reported in Table 1.
Method B: MX-1 cells were maintained in RPMI 1640 medium (Sigma) supplemented with 10% FBS at 37 C.° and an atmosphere of 5% CO2. For compound testing, MX-1 cells were plated in 384-well white with clear, flat bottom plates at a density of 750 cells/well in 25 μL of culture media and incubated at 370 overnight to allow cell adhesion and spreading. Ten point compound dilution series were prepared in DMSO via a 3-fold serial dilution from either […] or 1 μM stock and added directly to the appropriate wells of the MX-1 cell plate by an ECHO liquid handler (Labcyte). The final compound concentrations in the wells were 10, 3.25, 1, 0.25, 0.124, 0.040, 0.0124, 0.0031, 0.0015 and 0.0005 μM or 1, 0.33, 0.1, 0.025, 0.0124, 0.004, 0.0012, 0.0003, 0.00015, 0.00005 μM, depending on the concentration of the compound stock solution.
Luminescence readings from the Cell Titer Glo assay were normalized to the DMSO treated cells and analyzed using Accelrys Assay Explorer 3.3 software with sigmoidal curve fitting to obtain ECsos. The minimum significant ratio (MSR) was determined to evaluate assay reproducibility (Eastwood et al., (2006) J Biomol Screen, 11: 253-261). The overall MSR was determined to be 3.3 and a moving MSR (last six run MSR overtime) has averaged

[3] = tested on: breast cancer cell line MX-1; test: MX-1 cell line proliferation assay, Method A; assay type: cell-based; details: MX-1 cells, 96-well, 72 hours, Cell Titer Glo; read-out: Cellular proliferation: EC50 Method A
Method: as §2
For compound testing, MX-1 cells were plated in 96-well black bottom plates at a density of 5000 cells/well in 90 μL of culture media and incubated at 370 overnight to allow cell adhesion and spreading. Compound dilution series were prepared in DMSO via a 3-fold serial dilution from 3 mM to 0.1 μM. The DMSO dilution series were then diluted 1:100 in phosphate buffered saline, and 10 μL of the resulted solution were added to the appropriate wells of the MX-1 cell plate. The final compound concentrations in the wells were 3, 1, 0.3, 0.1, 0.03, 0.01, 0.003, 0.001, 0.0003 and 0.0001 μM.
Luminescence readings from the Cell Titer Glo assay were normalized to the DMSO treated cells and analyzed using the GraphPad Prism software with sigmoidal curve fitting to obtain EC50s. The minimum significant ratio (MSR) was determined to evaluate assay reproducibility (Eastwood et al., (2006) J Biomol Screen, 11: 253-261).

SMILES	Ki (BRD4 (BDI_K57-E168))	Ki (BRD4 (BDII_E352-M457))	EC50 [2]	inhibition of LPS induced IL-6 production [1]	EC50 [3]
CCS(=O)(=O)Nc1cc(-c2cn(C)c(=O)c3[nH]ccc23)c(Oc2ccc(F)cc2F)cc1CN(C)C [Example 2, N-[4-(2,4-difluorophenoxy)-2-[(dimethylamino)methyl]-5-(6-methyl-7-oxo-6,7-dihydro-1H-pyrrolo[2,3-c]pyridin-4-yl)phenyl]ethanesulfonamide]	57 nM	4 nM		45%	
Cn1cc(-c2cc(S(C)(=O)=O)ccc2NC2CCN(S(=O)(=O)/C=C/c3ccccc3)CC2)c2cc[nH]c2c1=O [Example 102]					67.3 nM
CN1CCN(Cc2cc3c(-c4cc(S(C)(=O)=O)ccc4Oc4ccc(F)cc4F)cn(C)c(=O)c3[nH]2)C(c2ccccc2)C1 (centres unmarked) [Example 188, 4-[2-(2,4-difluorophenoxy)-5-(methylsulfonyl)phenyl]-6-methyl-2-[(4-methyl-2-phenylpiperazin-1-yl)methyl]-1,6-dihydro-7H-pyrrolo[2,3-c]pyridin-7-one]	1.56 nM	151 nM	76.8 nM		
CCNC(=O)c1cc2c(-c3ccc(C(=O)N(CCCN4CCCC4)C(C)Cc4ccccc4)cc3Oc3c(C)cccc3C)cn(C)c(=O)c2[nH]1 (centres unmarked) [Example 165, 4-[2-(2,6-dimethylphenoxy)-4-{(1-phenylpropan-2-yl) [3-(pyrrolidin-1-yl)propyl]carbamoyl}phenyl]-N-ethyl-6-methyl-7-oxo-6,7-dihydro-1H-pyrrolo[2,3-c]pyridine-2-carboxamide]	429 nM	4.48 nM	1460 nM		
CCNC(=O)c1cc2c(-c3ccc(C(=O)N(CCCN(C)C)C4CCCCC4)cc3Oc3c(C)cccc3C)cn(C)c(=O)c2[nH]1 [Example 172, 4-[4-{cyclohexyl[3-(dimethylamino)propyl]carbamoyl}-2-(2,6-dimethylphenoxy)phenyl]-N-ethyl-6-methyl-7-oxo-6,7-dihydro-1H-pyrrolo[2,3-c]pyridine-2-carboxamide]	1000 nM	6.66 nM	2540 nM		
CCNC(=O)c1cc2c(-c3ccc(C(=O)N(Cc4ccccc4)Cc4ccc(Cl)cc4)cc3Oc3c(C)cccc3C)cn(C)c(=O)c2[nH]1 [Example 173, 4-{4-[benzyl(4-chlorobenzyl)carbamoyl]-2-(2,6-dimethylphenoxy)phenyl}-N-ethyl-6-methyl-7-oxo-6,7-dihydro-1H-pyrrolo[2,3-c]pyridine-2-carboxamide]	> 12700 nM	64.3 nM	5250 nM		
CCNC(=O)c1cc2c(-c3ccc(C(=O)N(CC#N)c4cccc(C(F)(F)F)c4)cc3Oc3c(C)cccc3C)cn(C)c(=O)c2[nH]1 [Example 171, 4-[4-{(cyanomethyl)[3-(trifluoromethyl)phenyl]carbamoyl}-2-(2,6-dimethylphenoxy)phenyl]-N-ethyl-6-methyl-7-oxo-6,7-dihydro-1H-pyrrolo[2,3-c]pyridine-2-carboxamide]	> 12700 nM	38.3 nM	6410 nM		
CCNC(=O)c1cc2c(-c3ccc(C(=O)N(CCC#N)C4CCCCC4)cc3Oc3c(C)cccc3C)cn(C)c(=O)c2[nH]1 [Example 176, 4-{4-[(2-cyanoethyl)(cyclohexyl)carbamoyl]-2-(2,6-dimethylphenoxy)phenyl}-N-ethyl-6-methyl-7-oxo-6,7-dihydro-1H-pyrrolo[2,3-c]pyridine-2-carboxamide]	927 nM	8.65 nM	3910 nM		
COc1ccc(S(=O)(=O)Nc2cccc(Oc3ccc(S(C)(=O)=O)cc3-c3cn(C)c(=O)c4[nH]ccc34)c2)cc1OC [Example 53]					144 nM

Continued, in another order:

Ki (BRD4 (BDI_K57-E168))	Ki (BRD4 (BDII_E352-M457))	EC50 [2]	SMILES	inhibition of LPS induced IL-6 production [1]	EC50 [3]
1080 nM	11.1 nM	2840 nM	CCCCN(CCC#N)C(=O)c1ccc(-c2cn(C)c(=O)c3[nH]c(C(=O)NCC)cc23)c(Oc2c(C)cccc2C)c1 [Example 184, 4-{4-[butyl(2-cyanoethyl)carbamoyl]-2-(2,6-dimethylphenoxy)phenyl}-N-ethyl-6-methyl-7-oxo-6,7-dihydro-1H-pyrrolo[2,3-c]pyridine-2-carboxamide]		
921 nM	6.06 nM	2120 nM	CCNC(=O)c1cc2c(-c3ccc(C(=O)N(CCN(CC)CC)c4ccccc4)cc3Oc3c(C)cccc3C)cn(C)c(=O)c2[nH]1 [Example 182, 4-[4-{[2-(diethylamino)ethyl](phenyl)carbamoyl}-2-(2,6-dimethylphenoxy)phenyl]-N-ethyl-6-methyl-7-oxo-6,7-dihydro-1H-pyrrolo[2,3-c]pyridine-2-carboxamide]		
863 nM	4.22 nM	2170 nM	CCNC(=O)c1cc2c(-c3ccc(C(=O)N(CCN(CC)CC)c4ccccc4C)cc3Oc3c(C)cccc3C)cn(C)c(=O)c2[nH]1 [Example 170, 4-[4-{[2-(diethylamino)ethyl](2-methylphenyl)carbamoyl}-2-(2,6-dimethylphenoxy)phenyl]-N-ethyl-6-methyl-7-oxo-6,7-dihydro-1H-pyrrolo[2,3-c]pyridine-2-carboxamide]		
1490 nM	9.21 nM	10000 nM	CCNC(=O)c1cc2c(-c3ccc(C(=O)N(CC#N)c4ccccc4)cc3Oc3c(C)cccc3C)cn(C)c(=O)c2[nH]1 [Example 177, 4-{4-[(cyanomethyl)(phenyl)carbamoyl]-2-(2,6-dimethylphenoxy)phenyl}-N-ethyl-6-methyl-7-oxo-6,7-dihydro-1H-pyrrolo[2,3-c]pyridine-2-carboxamide]		
1400 nM	27.8 nM	2170 nM	CCNC(=O)c1cc2c(-c3ccc(C(=O)N(CC#N)c4ccc(Cl)cc4)cc3Oc3c(C)cccc3C)cn(C)c(=O)c2[nH]1 [Example 169, 4-{4-[(4-chlorophenyl)(cyanomethyl)carbamoyl]-2-(2,6-dimethylphenoxy)phenyl}-N-ethyl-6-methyl-7-oxo-6,7-dihydro-1H-pyrrolo[2,3-c]pyridine-2-carboxamide]		
2300 nM	13.3 nM	1610 nM	CCNC(=O)c1cc2c(-c3ccc(C(=O)N(CCN(C)C)c4ncccn4)cc3Oc3c(C)cccc3C)cn(C)c(=O)c2[nH]1 [Example 174, 4-[4-{[2-(dimethylamino)ethyl](pyrimidin-2-yl)carbamoyl}-2-(2,6-dimethylphenoxy)phenyl]-N-ethyl-6-methyl-7-oxo-6,7-dihydro-1H-pyrrolo[2,3-c]pyridine-2-carboxamide]		
592 nM	2.5 nM	10000 nM	CCNC(=O)c1cc2c(-c3ccc(C(=O)N(CCN(CC)CC)c4ccccc4OC)cc3Oc3c(C)cccc3C)cn(C)c(=O)c2[nH]1 [Example 178, 4-[4-{[2-(diethylamino)ethyl](2-methoxyphenyl)carbamoyl}-2-(2,6-dimethylphenoxy)phenyl]-N-ethyl-6-methyl-7-oxo-6,7-dihydro-1H-pyrrolo[2,3-c]pyridine-2-carboxamide]		
